US7358076B2, “Sublancin lantibiotic produced by Bacillus subtilis 168” (The University of Maryland, priority 1997, dated 2008)

Tests used:
B. cereus T spores [1] = conditions: from reference (30); cited from earlier work
B. cereus T spores [2] = conditions: cited from earlier work
B. cereus T spores [3] = test: halo assay on agar plates sprayed with spores, extended incubation; assay type: cell-based, Bacillus cereus; conditions: lawns from sprayed B. cereus T spores, incubation for several days, data not shown
Description: Two methods were employed to assay the activity of sublancin 168; a halo assay on plates, and a liquid assay in culture tubes. Both methods used Bacillus cereus T spores as the test organism. 250 mg of spores, prepared as previously described (12), were suspended in 30 mL of distilled water with a glass homogenizer, heat-shocked at 65° C. for 2 hr, centrifuged, and resuspended in 50% ethanol. This suspension was sprayed onto the surface of Medium A-containing agar plates using a Sigma spray unit (St. Louis Mo.). Prior to spraying, 10-20 μL volumes of serial dilutions of purified sublancin were spotted onto the plate. […] growth of the spores, and the diameters of the halos caused by sublancin inhibition were measured, and the minimum amount of peptide that was required to give an observable halo was noted. For the liquid assay, heat-shocked spores were suspended in sterile water to a final concentration of 2 mg/mL, and then added to culture tubes containing 1% BACTO®-tryptone, 0.1 M TRIS®-Pi, pH 6.8. Prior to adding the spores, serial dilutions of sublancin were added to the tubes. The final concentration of spores was 0.1 mg/mL. The tubes were incubated at 37° C. for 3 hr, using sufficient shaking to keep the spores well suspended. […]
The ability of sublancin to inhibit bacterial spore outgrowth was also determined. […]

## C=C1NC(=O)CC[C@@H](C(=O)O)NC(=O)[C@H](NC(=O)[C@H](CCCCN)NC(=O)[C@@H](N)Cc2c[nH]c3ccccc23)CSC[C@@H](C(=O)N[C@@H]2C(=O)N3CCC[C@H]3C(=O)NCC(=O)N[C@H](C(=O)N[C@H](C(=O)N[C@@H]3C(=O)NCC(=O)N[C@@H](C)C(=O)N[C@@H](CC(C)C)C(=O)N[C@@H](CCC(N)=O)C(=O)N/C(=C/C)C(=O)N[C@H](C(=O)N[C@@H](Cc4ccccc4)C(=O)N[C@@H](CC(C)C)C(=O)N[C@@H](CCC(N)=O)C(=O)N[C@@H]4C(=O)N[C@@H](CC(C)C)C(=O)N[C@H]5C(=O)N[C@@H](CSC4C)C(=O)NC(=O)[C@H](CC(N)=O)N[C@H](C(=O)N[C@@H](CCCCN)C(=O)N[C@H](C(=O)NC(=C)C(=O)N[C@@H](CCCCN)C(=O)O)[C@@H](C)CC)CSC5C)CSC3C)C(C)C)CSC2C)N[C@@H](CC(C)C)C(=O)NC1=O (stereo partly shown) [subtilin]
B. cereus T spores [1]
  binding and inhibition of spores, reversibility: irreversibly
B. cereus T spores [2]; B. cereus T spores, from references (27,29)
  concentration required to inhibit outgrowth of these same spores: 80 nM
B. cereus T spores [2]; comparison value for subtilin, same methods as reference (27)
  corresponding ratio, spore outgrowth inhibition versus inhibition of exponentially growing cells: 30 fold
B. cereus T spores [3]
  appearance of halos after extended incubation of the plates: remained completely clear
